One block for each compound: values may come before it.
Columns and labels:
[1] = target: MST3 (Homo sapiens, UniProt Q9Y6E0); assay: 33P-radiolabeled kinase assay; format: biochemical
[2] = test system: CDK2; conditions: cited from earlier work
[3] = test system: CDK1; conditions: cited from earlier work

MST3, sequence (Q9Y6E0 1-431 isoform Q9Y6E0-2): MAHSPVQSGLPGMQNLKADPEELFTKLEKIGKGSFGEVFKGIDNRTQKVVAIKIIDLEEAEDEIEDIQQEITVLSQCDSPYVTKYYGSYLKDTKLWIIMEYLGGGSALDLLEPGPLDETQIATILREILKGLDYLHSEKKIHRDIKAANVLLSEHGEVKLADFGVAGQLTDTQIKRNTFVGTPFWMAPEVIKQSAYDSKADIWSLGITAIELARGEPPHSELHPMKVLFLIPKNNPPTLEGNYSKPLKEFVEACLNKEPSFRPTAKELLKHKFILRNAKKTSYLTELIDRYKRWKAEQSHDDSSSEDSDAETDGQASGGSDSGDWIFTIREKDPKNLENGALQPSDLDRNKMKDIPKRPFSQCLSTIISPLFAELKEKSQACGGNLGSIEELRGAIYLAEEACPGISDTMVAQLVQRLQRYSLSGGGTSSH

IC50 [1]: 3 nM
Compound: COc1cc(Nc2c(C#N)cnc3cc(OCCCN4CCN(C)CC4)c(OC)cc23)c(Cl)cc1Cl [bosutinib]

fold difference in MST3 inhibitory activity ([1]; less active than the related compound(s) of the same scaffold): 20 fold
Compound: CCN(CC)CCNC(=O)c1c(C)[nH]c(/C=C2\C(=O)Nc3ccc(F)cc32)c1C [sunitinib]

IC50 [1]: 260 nM
Compound: COCCOc1ccc2c(c1)ncn2-c1ccc2cccc(N3CCC(N)CC3)c2n1 [CP-673451]

Compound: CDK1/2 inhibitor III
activity against CDK2 [2]: sub-nanomolar
activity against CDK1 [3]: sub-nanomolar

Source: paper PMC7771544 (ChemMedChem, 2016)
